Source: ChEMBL document CHEMBL5126587 (Bioorg Med Chem, 2022)
Calls of active or inactive are those of the source. The calls are words filed in the database; no cut-off is given here. Numbered stars: 1 amine (or outer) side, 2 acyl side, 3 side chain; on linkers, the order of the positions; unused ones are H or OH. Peptide text beside a SMILES is read from it. * marks the point of attachment. X1 = NC(=O)c1n[nH]nc1[C@@H]1O[C@H](COC(=O)CCC(=O)NCCCOCCOCCOCCCN*)[C@@H](O)[C@H]1O; Suc = O=C(CCC(=O)[*:2])[*:1]

Key:
[1] = tested on: Hepatitis C virus; type: functional, Hepacivirus hominis, genotype 2a (JFH-AM71), Huh7-J20; settings: dose 100 µM; time 72 hrs
[2] = tested on: Hepatitis C virus; assay: microbe, parasite or virus in culture; settings: genotype 2a (JFH-AM71), Huh7-J20, 72 h
[3] = in vitro; settings: human, Huh7-J20 cells
[4] = tested on: Zika virus; type: functional, H/PAN/2016/BEI-259634, Vero
[5] = in vitro; settings: human, Huh7.5 cells
[6] = in vitro; settings: monkey, Vero cells
[7] = tested on: Zika virus; assay: microbe, parasite or virus in culture; settings: H/PAN/2016/BEI-259634, Vero, 72 h
[8] = tested on: Zika virus; type: functional, H/PAN/2016/BEI-259634, Huh7.5
[9] = tested on: Zika virus; assay: microbe, parasite or virus in culture; settings: H/PAN/2016/BEI-259634, Huh7.5, 72 h
[10] = tested on: Hepatitis C virus; type: functional, Hepacivirus hominis, genotype 2a (JFH-AM71), Huh7-J20; settings: dose 0.045 µM; time 72 hrs
[11] = tested on: Zika virus; type: functional, H/PAN/2016/BEI-259634, Vero; settings: dose 50-100 µM; time 3 day; at 50 to 100 µM
[12] = tested on: Zika virus; type: functional, H/PAN/2016/BEI-259634, Huh7.5; settings: dose 50-100 µM; time 3 day; at 50 to 100 µM
[13] = H/PAN/2016/BEI-259634, Huh7.5, dose 100.0 µM, time 3.0 day

SMILES: O=C(NCCCO)c1n[nH]nc1[C@@H]1O[C@H](CO)[C@@H](O)[C@H]1O
- Activity [1]: 45%
- IC50 [2]: 68 µM
- selectivity ratio [3]: 13.4
- Activity ([4]; dose 100 µM, time 3 day): 20%

SMILES: NC(=O)c1ncn([C@@H]2O[C@H](CO)[C@@H](O)[C@H]2O)n1 [RIBAVIRIN]
- selectivity ratio [5]: 240
- selectivity ratio [6]: 41.6
- Activity [1]: 80%
- IC50 [2]: 21.8 µM
- selectivity ratio [3]: 46.8
- IC50 [7]: 29.9 µM
- Activity ([8]; dose 100 µM, time 3 day): 80%
- IC50 [9]: 6.9 µM
- Activity ([4]; dose 100 µM, time 3 day): 80%

SMILES: CC(=O)OC[C@H]1O[C@@H](c2n[nH]nc2C(N)=O)[C@H](OC(C)=O)[C@@H]1OC(C)=O
- Activity [8, 13]: Active

SMILES: NC(=O)c1n[nH]nc1[C@@H]1O[C@H](CO)[C@@H](O)[C@H]1O
- Activity [1]: 60%
- IC50 [2]: 68 µM
- selectivity ratio [3]: 15.7
- Activity ([4]; dose 100 µM, time 3 day): 20%

SMILES: CC[C@H](C)[C@H](NC(=O)[C@H](Cc1cnc[nH]1)NC(=O)[C@H](Cc1c[nH]c2ccccc12)NC(=O)[C@H](CO)NC(=O)CCC(=O)NCCCOCCOCCOCCCNC(=O)CCC(=O)OC[C@H]1O[C@@H](c2n[nH]nc2C(N)=O)[C@H](O)[C@@H]1O)C(=O)N[C@@H](CC(N)=O)C(=O)N[C@@H](CCCNC(=N)N)C(=O)N[C@H](C(=O)N[C@@H](C)C(=O)N[C@@H](CC(C)C)C(=O)N[C@@H](CC(N)=O)C(=O)N[C@@H](CO)C(=O)N[C@@H](CC(N)=O)C(=O)N[C@@H](CC(=O)O)C(=O)N[C@@H](CO)C(N)=O)[C@@H](C)O ({X1-Suc}-SWHINRTALNSNDS-NH2)
- Activity [10]: 45%

SMILES: O=C(NO)c1n[nH]nc1[C@@H]1O[C@H](CO)[C@@H](O)[C@H]1O
- selectivity ratio [5]: 23.8
- selectivity ratio [6]: 29.1
- Activity [1]: 67%
- IC50 [2]: 49.1 µM
- selectivity ratio [3]: 16.8
- IC50 [7]: 33.2 µM
- Activity [11]: 70%
- Activity [8, 13]: Active
- IC50 [9]: 37.3 µM
- Activity ([4]; H/PAN/2016/BEI-259634, Vero, dose 100.0 µM, time 3.0 day): Active
- Activity [12]: 70%

SMILES: N=C(N)NCCC[C@H](NC(=O)[C@H](CCCNC(=N)N)NC(=O)[C@H](CCCNC(=N)N)NC(=O)[C@H](CCC(N)=O)NC(=O)[C@H](CCCNC(=N)N)NC(=O)[C@H](CCCNC(=N)N)NC(=O)[C@H](CCCCN)NC(=O)[C@H](CCCCN)NC(=O)[C@H](CCCNC(=N)N)NC(=O)CNC(=O)[C@H](Cc1ccc(O)cc1)NC(=O)CCC(=O)NCCCOCCOCCOCCCNC(=O)CCC(=O)OC[C@H]1O[C@@H](c2n[nH]nc2C(N)=O)[C@H](O)[C@@H]1O)C(N)=O
- Activity [10]: 45%

SMILES: CCCNC(=O)c1n[nH]nc1[C@@H]1O[C@H](CO)[C@@H](O)[C@H]1O
- Activity [1]: 45%
- IC50 [2]: 100 µM
- selectivity ratio [3]: 7.3
- Activity [8, 13]: Active
